This note sets out measurements from paper PMC3914206.

Experiment [1] deals with T1, panel of 442 kinases (Homo sapiens, UniProt P49761).
T1 construct: purchased KINOMEscan
It is filed as binding. The settings on record: Compound Concentration 10 µM. The text has this:
(§1) We assessed the selectivity of members of this scaffold using the KINOMEscan methodology across a near comprehensive panel of 442 kinases [[18,27]].

In experiment [2] the target is T2, panel of 442 kinases (Homo sapiens, UniProt Q8NE63).
T2 construct: purchased KINOMEscan
T2 sequence (Q8NE63 1-616): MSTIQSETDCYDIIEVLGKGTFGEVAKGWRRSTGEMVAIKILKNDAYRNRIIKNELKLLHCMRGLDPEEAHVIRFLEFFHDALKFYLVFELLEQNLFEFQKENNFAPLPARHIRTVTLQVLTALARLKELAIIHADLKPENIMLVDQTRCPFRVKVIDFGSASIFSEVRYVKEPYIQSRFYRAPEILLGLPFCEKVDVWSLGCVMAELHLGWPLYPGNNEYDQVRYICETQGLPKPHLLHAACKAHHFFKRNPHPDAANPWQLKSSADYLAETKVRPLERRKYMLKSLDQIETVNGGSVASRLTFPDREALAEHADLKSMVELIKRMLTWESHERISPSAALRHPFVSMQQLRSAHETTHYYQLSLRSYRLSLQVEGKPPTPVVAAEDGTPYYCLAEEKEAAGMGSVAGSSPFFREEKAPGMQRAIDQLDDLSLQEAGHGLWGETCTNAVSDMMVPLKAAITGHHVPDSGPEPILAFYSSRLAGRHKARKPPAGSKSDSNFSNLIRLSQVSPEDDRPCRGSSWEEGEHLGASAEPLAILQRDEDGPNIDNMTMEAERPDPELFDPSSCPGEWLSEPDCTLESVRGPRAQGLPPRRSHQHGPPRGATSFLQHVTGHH
The format is binding. The settings on record: Compound Concentration 10 µM.
Text: as §1

T1 sequence (P49761 whole entry): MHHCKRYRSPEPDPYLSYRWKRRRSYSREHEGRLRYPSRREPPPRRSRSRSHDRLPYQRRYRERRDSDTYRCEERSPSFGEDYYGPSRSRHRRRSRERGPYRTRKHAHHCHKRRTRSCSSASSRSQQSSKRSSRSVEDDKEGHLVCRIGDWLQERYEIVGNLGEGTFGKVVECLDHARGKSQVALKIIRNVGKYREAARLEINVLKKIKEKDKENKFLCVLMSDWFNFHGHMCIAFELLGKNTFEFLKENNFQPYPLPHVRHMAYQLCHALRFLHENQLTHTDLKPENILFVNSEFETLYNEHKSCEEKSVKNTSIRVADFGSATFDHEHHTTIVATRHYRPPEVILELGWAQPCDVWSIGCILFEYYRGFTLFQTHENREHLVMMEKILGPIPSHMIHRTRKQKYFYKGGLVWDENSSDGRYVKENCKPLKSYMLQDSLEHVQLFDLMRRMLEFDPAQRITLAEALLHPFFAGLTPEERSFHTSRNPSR

`COc1cc(C(=O)N2CCC(N3CCN(C)CC3)CC2)ccc1Nc1ncc2c(n1)N(C1CCCC1)c1ccccc1C(=O)N2C` [Compound 25, 11-cyclopentyl-2-((2-methoxy-4-(4-(4-methylpiperazin-1-yl)piperidine-1-carbonyl)phenyl)amino)-5-methyl-5H-benzo[e]pyrimido[5,4-b][1,4]diazepin-6(11H)-one]: the “KINOMEscan: CLK3” value at panel of 442 kinases [1] is 100. The “KINOMEscan: HIPK4” value at panel of 442 kinases [2] stood at 87.
For `COc1cc(C(=O)N2CCC(N3CCN(C)CC3)CC2)ccc1Nc1ncc2c(n1)N1CCc3cccc(c31)C(=O)N2C` [Compound 24] the same measures were 80 and 50.
Regarding `COc1cc(C(=O)N2CCC(N3CCN(C)CC3)CC2)ccc1Nc1ncc2c(n1)N(C)c1ccccc1C(=O)N2C` [15 (LRRK2-IN-1)], the “KINOMEscan: CLK3” value at panel of 442 kinases [1] is reported as 95. Further, the “KINOMEscan: HIPK4” value on panel of 442 kinases [2] stood at 100.
For `CCOc1cc(C(=O)N2CCC(N3CCN(C)CC3)CC2)ccc1Nc1ncc2c(n1)N(C1CCCC1)c1ccccc1C(=O)N2C` [Compound 26] the same measures were 100 and 100.
